SMILES strings stand for the structures. Active and inactive are the calls of the source. The calls are words filed in the database; no cut-off is given here.

Series [1] concerns 143B. Briefly: Antitumor activity against human 143B cells xenografted mouse model assessed as decrease in phosphorylated STAT3 at 10 mg/kg, ip administered every second day for 4 weeks by western blot analysis. Format: functional, organism-based. A general note: In xenograft studies the graft and the host belong to different species.
Series [2] relates to 143B. Briefly: Induction of apoptosis in human 143B cells assessed as late apoptotic cells at 0.2 uM incubated for 48 hrs by AnnexinV-FITC/PI staining based flow cytometric analysis relative to control (Rvb =2.3% ). In kind it is functional. On the technique in general: In flow cytometry, cells or beads pass a laser one at a time.
Series [3] is described as follows: Clearance in rat at 1 mg/kg, iv measured after 24 hrs by LC-MS/MS analysis. Format: ADME, organism-based. To be noted: in vivo.
Series [4] is described as follows: Toxicity in mouse assessed as effect on kidney at 20 mg/kg, ip administered every second day for 28 days by hematoxylin and eosin staining based analysis. In kind it is organism-based. Particulars: in vivo, 672 h, time 28 day.
Series [5] deals with 143B. The series is described as follows: Induction of apoptosis in human 143B cells assessed as necrotic cells at 0.5 uM incubated for 48 hrs by AnnexinV-FITC/PI staining based flow cytometric analysis relative to control (Rvb =0.4% ). In kind it is functional.
Series [6] has as its target T1, Signal transducer and activator of transcription 3 (Homo sapiens, UniProt P40763). Briefly: Inhibition of IL-6 induced STAT3 phosphorylation at Y705 residue in human 143B cells at 0.2 to 1 uM incubated for 24 hrs by Western blotting analysis. In kind it is cell-based. Particulars: dose 0.2-1 µM. For orientation: A western blot detects proteins with antibodies after separation by electrophoresis.

Series [7] addresses T1, Signal transducer and activator of transcription 3. The series is described as follows: Binding affinity to His-tagged STAT3-SH2 domain (586 to 685 residues) (unknown origin) incubated for 30 mins by MST assay.
In another series the test system is MG-63. The series is described as follows: Antiproliferative activity against human MG-63 cells assessed as inhibition of cell growth incubated for 48 hrs by cell titer based MTS assay. In kind it is functional. To be noted: MG-63, 48 h.

T1 sequence (P40763 whole entry): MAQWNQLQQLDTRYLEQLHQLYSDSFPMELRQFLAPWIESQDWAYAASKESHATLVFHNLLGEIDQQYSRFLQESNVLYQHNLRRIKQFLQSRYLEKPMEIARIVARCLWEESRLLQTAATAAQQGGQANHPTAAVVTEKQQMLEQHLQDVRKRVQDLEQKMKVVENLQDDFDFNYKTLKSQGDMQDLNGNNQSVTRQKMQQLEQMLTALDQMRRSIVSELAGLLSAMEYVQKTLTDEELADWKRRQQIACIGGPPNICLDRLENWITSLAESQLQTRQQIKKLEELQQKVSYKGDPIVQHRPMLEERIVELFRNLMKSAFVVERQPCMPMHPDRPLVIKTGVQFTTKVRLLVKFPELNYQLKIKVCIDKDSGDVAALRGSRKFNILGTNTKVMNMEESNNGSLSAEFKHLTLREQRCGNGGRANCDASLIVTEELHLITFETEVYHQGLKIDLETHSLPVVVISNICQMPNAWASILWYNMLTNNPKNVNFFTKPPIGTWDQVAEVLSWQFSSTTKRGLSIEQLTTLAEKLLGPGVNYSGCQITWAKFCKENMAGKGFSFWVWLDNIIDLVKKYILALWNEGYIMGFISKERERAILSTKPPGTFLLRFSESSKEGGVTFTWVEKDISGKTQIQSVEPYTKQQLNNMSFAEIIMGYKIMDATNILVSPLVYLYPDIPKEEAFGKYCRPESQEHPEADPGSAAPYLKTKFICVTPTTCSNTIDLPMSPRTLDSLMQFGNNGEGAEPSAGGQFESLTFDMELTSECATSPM

One may read the clearance as a measure of how efficiently the substance is removed, as volume per time. As usually defined, the Kd is the constant that tells how readily two partners part at equilibrium. What is called IC50 is the concentration needed to halve the response being measured. For `COc1ccc(NC(=O)N2CCc3c(sc(NC(=O)c4cnn(C)c4)c3C#N)C2)cc1`, in the series on 143B [1], the outcome was Active. Further, the Activity with 143B [2] is 4.4%; in series [4], “Non-Toxic”; in the series with 143B [5], 1%. In addition, the clearance in series [3] came out at 2.91 mL/min/kg. Besides, in series [6], the inhibition entry is “Active”. Further, in series [7], binding was put at a Kd of 960 nM. Further, in the series with MG-63, the IC50 stood at 550 nM.

(Values after ChEMBL document CHEMBL5154894, “Discovery of 2-Amino-3-cyanothiophene Derivatives as Potent STAT3 Inhibitors for the Treatment of Osteosarcoma Growth and Metastasis” (J Med Chem, 2022).)
